Laboratory results reported in patent publication US8304446B2, “Compounds” (Glaxo Group Limited, priority 2009, dated 2012).
Where a name gives a salt, the structure may show the parent alone.

These compounds were tested on CD4+ CCR4+ T cells (assay: Chemokine stimulated increases in cellular F-actin content). Conditions: Homo sapiens, T-cell, 0.5 h; PBMC from normal volunteers; antagonist 30 min at 37° C. before agonist for 15 sec; F-actin content by flow cytometry; read-out: pA2 (converted).
Assay type: cell-based
Experimental: Chemokine Stimulated Increases in Cellular F-Actin Content
Blood was taken from normal volunteers who had taken no medication within the previous ten days and mixed with 1/9 of the volume of 3.8% tri-sodium citrate solution. Chemokine-induced increases in the F-actin content of CD4+ CCR4+ T cells were measured by a modification of the method of Pilette et al. (Eur. Respir. J; 23: 876-884, 2004). Peripheral blood mononuclear cells (PBMC) were isolated by dextran sedimentation followed by Percoll density gradient centrifugation. The PBMCs were incubated with FITC-conjugated anti-human CD4 and PE-conjugated anti-CCR4 antibodies or appropriate isotype controls for 15 min. The cell suspensions were then centrifuged at 400 g for 10 min and the pellets resuspended in assay buffer (phenol red-free RPMI 1640 medium containing 10 mM HEPES and 0.1% bovine serum albumin) at 10^7/mL. The resulting cell suspension was incubated with antagonist or vehicle (0.1% DMSO) for 30 min at 37° C. before stimulation with the agonist for 15 sec. The assay was terminated by addition of 3% formaldehyde. The fixed cells were washed twice with PBS (centrifuging at 1000 g for 5 min to recover the cells) and incubated at room temperature with Alexa fluor-647 phalloidin (0.075 U/mL) in the presence of lyso-phosphatidylcholine (93.75 μg/ml) for 20 min to stain F-actin. The cells were washed once more with PBS and the relative F-actin content of the cells was measured flow cytometrically. The mean fluorescence intensity of 1000 CD4^+ CCR4^+ cells per sample was determined and expressed as a fraction of the mean intensity of the CD4^+ CCR4^− cells in that sample.
Work on `COc1cccc2c1c(NS(=O)(=O)c1ccc(Cl)s1)nn2Cc1cccc(CNC(C)=O)c1` [Example 1, N-[(3-{[3-{[(5-Chloro-2-thienyl)sulfonyl]amino}-4-(methyloxy)-1H-indazol-1-yl]methyl}phenyl)methyl]acetamide] yielded a Kb of at most 126 nM. With `COc1cccc2c1c(NS(=O)(=O)c1ccc(Cl)s1)nn2Cc1cccc(CNC=O)c1` [Example 5, 5-Chloro-N-[1-({3-[(formylamino)methyl]phenyl}methyl)-4-(methyloxy)-1H-indazol-3-yl]-2-thiophenesulfonamide] the Kb was at most 126 nM. `COc1cccc2c1c(NS(=O)(=O)c1ccc(Cl)s1)nn2Cc1cccc(CNC(=O)[C@H]2CCCCN2)c1` [Example 9, (2R)—N-[(3-{[3-{[(5-chloro-2-thienyl)sulfonyl]amino}-4-(methyloxy)-1H-indazol-1-yl]methyl}phenyl)methyl]-2-piperidinecarboxamide trifluoroacetate salt] gave a Kb of at most 126 nM. `COc1cccc2c1c(NS(=O)(=O)c1ccc(Cl)s1)nn2Cc1cccc(CNC(=O)C(C)(C)CN)c1` [Example 11, 3-Amino-N-[(3-{[3-{[(5-chloro-2-thienyl)sulfonyl]amino}-4-(methyloxy)-1H-indazol-1-yl]methyl}phenyl)methyl]-2,2-dimethylpropanamide hydrochloride] showed a Kb of at most 126 nM. `CNCC(=O)NCc1cccc(Cn2nc(NS(=O)(=O)c3ccc(Cl)s3)c3c(OC)cccc32)c1` [Example 12, N^1-[(3-{[3-{[(5-chloro-2-thienyl)sulfonyl]amino}-4-(methyloxy)-1H-indazol-1-yl]methyl}phenyl)methyl]-N^2-methylglycinamide hydrochloride] gave a Kb of at most 126 nM. `COc1cccc2c1c(NS(=O)(=O)c1ccc(Cl)s1)nn2Cc1cccc(CNC(=O)[C@@]2(C)CCCN2)c1` [Example 13, N-[(3-{[3-{[(5-Chloro-2-thienyl)sulfonyl]amino}-4-(methyloxy)-1H-indazol-1-yl]methyl}phenyl)methyl]-2-methyl-D-prolinamide] was tested, and the Kb was at most 126 nM. Work on `COc1cccc2c1c(NS(=O)(=O)c1ccc(Cl)s1)nn2Cc1cccc(CNC(=O)C2(C)CCCCN2)c1` (centres unmarked) [Example 14, N-[(3-{[3-{[(5-chloro-2-thienyl)sulfonyl]amino}-4-(methyloxy)-1H-indazol-1-yl]methyl}phenyl)methyl]-2-methyl-2-piperidinecarboxamide] yielded a Kb of at most 126 nM. `CNC1(C(=O)NCc2cccc(Cn3nc(NS(=O)(=O)c4ccc(Cl)s4)c4c(OC)cccc43)c2)CC1` [Example 15, N-[(3-{[3-{[(5-Chloro-2-thienyl)sulfonyl]amino}-4-(methyloxy)-1H-indazol-1-yl]methyl}phenyl)methyl]-1-(methylamino)cyclopropanecarboxamide hydrochloride] showed a Kb of at most 126 nM. `COc1cccc2c1c(NS(=O)(=O)c1ccc(Cl)s1)nn2Cc1cccc(CNC(=O)[C@@H](C)N)c1` [Example 19, N^1-[(3-{[3-{[(5-chloro-2-thienyl)sulfonyl]amino}-4-(methyloxy)-1H-indazol-1-yl]methyl}phenyl)methyl]-D-alaninamide trifluoroacetate] showed a Kb of at most 126 nM. `COc1cccc2c1c(NS(=O)(=O)c1ccc(Cl)s1)nn2Cc1cccc(CNC(=O)CN)c1` [Example 20, N^1-[(3-{[3-{[(5-chloro-2-thienyl)sulfonyl]amino}-4-(methyloxy)-1H-indazol-1-yl]methyl}phenyl)methyl]glycinamide trifluoroacetate] showed a Kb of at most 126 nM. `CNC(=O)[C@@H](N)CC(=O)NCc1cccc(Cn2nc(NS(=O)(=O)c3ccc(Cl)s3)c3c(OC)cccc32)c1` [Example 22, N^4-[(3-{[3-{[(5-chloro-2-thienyl)sulfonyl]amino}-4-(methyloxy)-1H-indazol-1-yl]methyl}phenyl)methyl]-N^1-methyl-L-aspartamide trifluoroacetate] showed a Kb of at most 126 nM. In the case of `COC(=O)[C@@H](N)CC(=O)NCc1cccc(Cn2nc(NS(=O)(=O)c3ccc(Cl)s3)c3c(OC)cccc32)c1` [Example 23, Methyl N^4-[(3-{[3-{[(5-chloro-2-thienyl)sulfonyl]amino}-4-(methyloxy)-1H-indazol-1-yl]methyl}phenyl)methyl]asparaginate trifluoroacetate], the Kb is reported as at most 126 nM. In the case of `COc1cccc2c1c(NS(=O)(=O)c1ccc(Cl)s1)nn2Cc1cccc(CNC(=O)CC2CCCN2)c1` (centres unmarked) [Example 24, N-[(3-{[3-{[(5-chloro-2-thienyl)sulfonyl]amino}-4-(methyloxy)-1H-indazol-1-yl]methyl}phenyl)methyl]-2-(2-pyrrolidinyl)acetamide trifluoroacetate], the Kb is reported as at most 126 nM. Work on `COc1cccc2c1c(NS(=O)(=O)c1ccc(Cl)s1)nn2Cc1cccc(CNC(=O)CC(C)N)c1` (centres unmarked) [Example 25, 3-Amino-N-[(3-{[3-{[(5-chloro-2-thienyl)sulfonyl]amino}-4-(methyloxy)-1H-indazol-1-yl]methyl}phenyl)methyl]butanamide trifluoroacetate] yielded a Kb of at most 126 nM. `CNCCC(=O)NCc1cccc(Cn2nc(NS(=O)(=O)c3ccc(Cl)s3)c3c(OC)cccc32)c1` [Example 29, N^1-[(3-{[3-{[(5-Chloro-2-thienyl)sulfonyl]amino}-4-(methyloxy)-1H-indazol-1-yl]methyl}phenyl)methyl]-N^3-methyl-β-alaninamide trifluoroacetate] gave a Kb of at most 126 nM. `COCC(=O)NCc1cccc(Cn2nc(NS(=O)(=O)c3ccc(Cl)s3)c3c(OC)cccc32)c1` [Example 30, N-[(3-{[3-{[(5-Chloro-2-thienyl)sulfonyl]amino}-4-(methyloxy)-1H-indazol-1-yl]methyl}phenyl)methyl]-2-(methyloxy)acetamide] was tested, and the Kb was at most 126 nM. In the case of `COc1cccc2c1c(NS(=O)(=O)c1ccc(Cl)s1)nn2Cc1cccc(CNC(=O)[C@H](C)N(C)C)c1` [Example 31, N^1-[(3-{[3-{[(5-Chloro-2-thienyl)sulfonyl]amino}-4-(methyloxy)-1H-indazol-1-yl]methyl}phenyl)methyl]-N^2,N^2-dimethylalaninamide trifluoroacetate], the Kb is reported as at most 126 nM. Work on `COc1cccc2c1c(NS(=O)(=O)c1ccc(Cl)s1)nn2Cc1cccc(CNC(=O)CO)c1` [Example 32, N-[(3-{[3-{[(5-Chloro-2-thienyl)sulfonyl]amino}-4-(methyloxy)-1H-indazol-1-yl]methyl}phenyl)methyl]-2-hydroxyacetamide] yielded a Kb of at most 126 nM. Compound `COc1cccc2c1c(NS(=O)(=O)c1ccc(Cl)s1)nn2Cc1cccc(CNC(=O)C(C)(C)N(C)C)c1` [Example 34, N^1-[(3-{[3-{[(5-Chloro-2-thienyl)sulfonyl]amino}-4-(methyloxy)-1H-indazol-1-yl]methyl}phenyl)methyl]-N^2,N^2,2-trimethylalaninamide trifluoroacetate] has a Kb of at most 126 nM. `COCCN(C)CC(=O)NCc1cccc(Cn2nc(NS(=O)(=O)c3ccc(Cl)s3)c3c(OC)cccc32)c1` [Example 36, N^1-[(3-{[3-{[(5-Chloro-2-thienyl)sulfonyl]amino}-4-(methyloxy)-1H-indazol-1-yl]methyl}phenyl)methyl]-N^2-methyl-N^2-[2-(methyloxy)ethyl]glycinamide trifluoroacetate] showed a Kb of at most 126 nM. `COc1cccc2c1c(NS(=O)(=O)c1ccc(Cl)s1)nn2Cc1cccc(CNC(=O)c2cnco2)c1` [Example 38, N-[(3-{[3-{[(5-Chloro-2-thienyl)sulfonyl]amino}-4-(methyloxy)-1H-indazol-1-yl]methyl}phenyl)methyl]-1,3-oxazole-5-carboxamide] gave a Kb of at most 126 nM. In the case of `COc1cccc2c1c(NS(=O)(=O)c1ccc(Cl)s1)nn2Cc1cccc(CNC(=O)[C@@H]2CCCN2C)c1` [Example 39, N-[(3-{[3-{[(5-Chloro-2-thienyl)sulfonyl]amino}-4-(methyloxy)-1H-indazol-1-yl]methyl}phenyl)methyl]-methyl-L-prolinamide trifluoroacetate], the Kb is reported as at most 126 nM. In the case of `COc1cccc2c1c(NS(=O)(=O)c1ccc(Cl)s1)nn2Cc1cccc(CNC(=O)[C@H]2CCCN2C)c1` [Example 40, N-[(3-{[3-{[(5-Chloro-2-thienyl)sulfonyl]amino}-4-(methyloxy)-1H-indazol-1-yl]methyl}phenyl)methyl]-1-methyl-D-prolinamide trifluoroacetate], the Kb is reported as at most 126 nM. For `COc1cccc2c1c(NS(=O)(=O)c1ccc(Cl)s1)nn2Cc1cccc(CNC(=O)c2ccoc2)c1` [Example 41, N-[(3-{[3-{[(5-Chloro-2-thienyl)sulfonyl]amino}-4-(methyloxy)-1H-indazol-1-yl]methyl}phenyl)methyl]-3-furancarboxamide], the Kb was at most 126 nM. For `COc1cccc2c1c(NS(=O)(=O)c1ccc(Cl)s1)nn2Cc1cccc(CNC(=O)C2CCCCN2C)c1` (centres unmarked) [Example 42, N-[(3-{[3-{[(5-chloro-2-thienyl)sulfonyl]amino}-4-(methyloxy)-1H-indazol-1-yl]methyl}phenyl)methyl]-1-methyl-2-piperidinecarboxamide trifluoroacetate], the Kb was at most 126 nM. Work on `COc1cccc2c1c(NS(=O)(=O)c1ccc(Cl)s1)nn2Cc1cccc(CNC(=O)[C@H](N)CC(C)C)c1` [Example 45, N^1-[(3-{[3-{[(5-Chloro-2-thienyl)sulfonyl]amino}-4-(methyloxy)-1H-indazol-1-yl]methyl}phenyl)methyl]-D-leucinamide] yielded a Kb of at most 126 nM.
